pEC50: −log10 of the molar value.

The term pEC50 denotes the negative decadic logarithm of the EC50, by convention in mol/L. A lower pEC50 goes with a large EC50.

The target of this experiment is T1, human PPAR alpha (Homo sapiens, UniProt Q07869).
T1 construct: expressed in transfected cells; host or cells: U2-OS (human osteogenic sarcoma), transient electroporation with pSG5-based expression vector
T1 sequence (Q07869 239-466 limits assumed): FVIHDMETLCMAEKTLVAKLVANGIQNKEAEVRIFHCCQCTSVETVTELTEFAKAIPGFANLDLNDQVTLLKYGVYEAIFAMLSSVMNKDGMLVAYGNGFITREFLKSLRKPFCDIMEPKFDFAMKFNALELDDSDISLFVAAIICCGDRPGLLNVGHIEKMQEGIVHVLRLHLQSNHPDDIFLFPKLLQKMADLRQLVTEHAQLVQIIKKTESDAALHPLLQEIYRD
Kind of experiment: GAL4-PPAR ligand binding domain luciferase reporter transactivation assay in transiently transfected U2-OS cells. The experiment is classed as cell-based. The settings on record: about 24 hours exposure, concentration giving 50% of maximal activation by reference compound (ETYA). The procedure:
Compounds were dissolved in DMSO to obtain 16 mM stock solutions. Before assays, stock solutions were further diluted in DMSO and culture media.
U2-OS, (Osteogenic sarcoma, Human) was purchased from ATCC, USA. Cells were expanded and refrozen in batches from passage number six. Cells were cultured in Dulbecco's modified Eagle medium (DMEM) with 25 mM glucose, 2 mM glutamine or 4 mM L-alanyl-L-glutamine, 10% fetal calf serum, at 5% CO2. Phosphate buffered saline (PBS) without addition of calcium or magnesium was used. All cell culture reagents were from Gibco (USA) and 96-well cell culture plates were purchased from Wallach.
Standard recombinant DNA techniques were carried out as described by Ausubel (7). The Luciferase reporter vector, pGL5UAS (clone consists of five copies of the GAL4 DNA binding sequence, 5′-[…]-3′, cloned into the SacI/XhoI sites of pGL3-Promoter (Promega). The SacI/XhoI fragment carrying the UAS sites was constructed using annealed overlapping oligonucleotides.
Expression vectors used are based upon pSG5 (Stratagene). All vectors contain an EcoRI/NheI fragment encoding the DNA binding domain of GAL4 (encoding amino acid positions 1-145 of database accession number P04386) followed by an in-frame fusion to a fragment encoding the nuclear localisation sequence from T antigen of Polyoma Virus. The nuclear localisation sequence was constructed using annealed overlapping oligonucleotides creating NheI/KpnI sticky ends (5′-[…]-3′). The ligand binding domains from human and mouse PPARα and human and mouse PPARγ were PCR amplified as KpnI/BamHI fragments and cloned in frame to the GAL4 DNA binding domain and the nuclear localisation sequence. The sequence of all plasmid constructs used were confirmed by sequencing.
Frozen stocks of cells from passage number six were thawed and expanded to passage number eight before transfections. Confluent cells were trypsinised, washed and pelleted by centrifugation at 270×g for 2 minutes. The cell pellet was resuspended in cold PBS to a cell concentration of about 18×10^6 cells/ml. After addition of DNA, the cell suspension was incubated on ice for approximately 5 minutes before electroporation at 230 V, 960 μF in Biorad's Gene Pulser™ in 0.5 ml batches. A total of 50 μg DNA was added to each batch of 0.5 ml cells, including 2.5 μg expression vector, 25 μg reporter vector and 22.5 μg unspecific DNA (pBluescript, Stratagene).
After electroporation, cells were diluted to a concentration of 320'000 cells/ml in DMEM without phenol red, and approximately 25'000 cells/well were seeded in 96-well plates. In order to allow cells to recover, seeded plates were incubated at 37° C. for 3-4 hours before addition of test compounds. […]
On the technique in general: In a reporter assay the amount or activity of a reporter protein is the signal.

Take `CCN(Cc1ccc(Cl)cc1)C(=O)Cc1ccc(SCc2ccccc2C(=O)O)cc1` [Example 15, 2-{[(4-{2-[(4-Chlorobenzyl)(ethyl)amino]-2-oxoethyl}phenyl)thio]methyl}benzoic acid]: the negative-log EC50 (pEC50) is 7.57.

`CCN(Cc1ccc(C(F)(F)F)cc1)C(=O)Cc1ccc(SCc2ccccc2C(=O)O)cc1` [Example 11, 2-({[4-(2-{Ethyl[4-(trifluoromethyl)benzyl]amino}-2-oxoethyl)phenyl]thio}methyl)benzoic acid] had a negative logarithm of the EC50 (pEC50) of 7.59.

`CCCCCCCN(Cc1ccc(F)cc1F)C(=O)CCc1ccc(OCc2ccccc2C(=O)O)cc1` [Example 5, 2-[(4-{3-[(2,4-Difluorobenzyl)(heptyl)amino]-3-oxopropyl}phenoxy)methyl]benzoic acid] gave a negative-log EC50 (pEC50) of 6.79.

In the case of `CCCN(Cc1ccc(F)cc1F)C(=O)CCc1ccc(OCc2ccccc2C(=O)O)cc1` [Example 10, 2-[(4-{3-[(2,4-difluorobenzyl)(propyl)amino]-3-oxopropyl}phenoxy)methyl]benzoic acid], the negative logarithm of the EC50 (pEC50) was 6.77.

The record behind these values is patent US7355069B2, “Ortho-substituted benzoic acid derivatives for the treatment of insulin resistance” (AstraZeneca AB, priority 2002, dated 2008).
